# Laboratory results taken from patent US20160000804A1, “INHIBITORS OF NA(V) 1.9 CHANNEL ACTIVITY AND USES THEREOF FOR TREATING PAIN” (UNIVERSITE D'AIX-MARSEILLE, priority 2013, published 2016).
# “Also recorded” adds a separate entry of the source.
# What was measured:
# Nav1.9 = assay: Whole-cell voltage clamp recording of Nav1.9 activation curve in DRG neurons; format: cell-based; conditions: for reversal of the inflammatory cocktail-induced shift of Nav1.9 activation curve: cholesterol supply in presence of inflammatory cocktail; for shift of Nav1.9 activation curve: substance alone versus control neuron, MβCD 20 mM, water soluble cholesterol 20 mM, cholesterol oxidase 4 U/ml, 15 min 37° C.
# Procedure: Dissociation of DRG neurons has been previously described (Coste et al., 2004; Coste et al., 2007). In brief, thoraco-lumbar DRG neurons were excised and incubated in enzyme solution containing 2 mg/ml of collagenase IA (Sigma) for 45 min at 37° C. before trituration in Hanks' medium (Life Technologies). Culture medium was Dulbecco's modified Eagle's medium (DMEM, Life Technologies) supplemented with 10% heat-inactivated fetal calf serum, 50 U/ml penicillin-streptomycin, 2 mML-glutamine, 25 mM glucose, 2 ng/ml glial-derived neurotrophic factor (GDNF) (all from Life Technologies), and 25 ng/ml nerve growth factor (NGF, Millipore). Cells were seeded on 35 mm cultures dishes (Nunc) coated with 2 mg/ml laminin (Sigma) and maintained in a humidified atmosphere (5% CO2, 37° C.) for 16-24 h before further cholesterol manipulations or electrophysiological recording.
# Patch pipettes had resistances of 3-3.5 MΩ for whole-cell voltage clamp recordings. Intracellular solution used in this study contained: 130 CsCl, 10 HEPES, 8 NaCl, 5 EGTA, 2.4 CaCl2, 1 MgCl2 (pH 7.3, 298 mOsm/l). […] Extracellular solution contained 500 nM tetrodotoxin (TTX) as well as 1 mM amiloride and 50 μM La^3+ in order to block Ca^2+ currents without altering NaN/Nav1.9 properties (Coste et al., 2007). […]. Extracellular media were exchanged using a gravity-fed bath perfusion system at a flow rate of 2-5 ml/min, while bath solution was removed by continuous suction. Recycling was used to reduce the amount of TTX used. Stock solutions of TTX (0.1 mM) and La^3+ (1M) were prepared in water. Stock solution of amiloride hydrochloride (1M) was made in dimethylsulfoxyde (final concentration, 0.1%).
# For drugs application, DRG cultures were incubated for 15 min at 37° C. in DMEM containing freshly prepared MβCD (20 mM), water soluble cholesterol (20 mM), or cholesterol oxidase (4 U/ml). The inflammatory cocktail was incubated in extracellular solution for at least 20 min at room temperature (RT).
# Data were acquired with an Axopatch 200B amplifier (Axon Instruments), filtered at 2 kHz, and digitally sampled at 20 kHz using PCLAMP 10 software. Currents were leak subtracted using a P/6 protocol. Voltage errors were minimized using 70-85% series resistance compensation. Whole-cell recording were begun 1 min after achieving the whole-cell configuration, to allow Cs^+ to equilibrate and to allow Nav1.9 channels to recover from slow inactivation. Conductance-voltage curves were calculated from the peak current according to the equation G=I/(V−Erev), where V is the test pulse potential and Erev the reversal potential calculated according to the Nernst equation. The activation curve (G-V) was fitted using the Boltzmann function: G/Gmax=1/(1+exp[(V1/2−V)/k]), where G/Gmax is the normalized conductance, V1/2 is the potential of half-maximum channel activation, and k is the steepness factor.
# mice = assay: Carrageenan model of persistent paw inflammation, von Frey test; format: in vivo
# Procedure: Persistent paw inflammation was induced by intraplantar injection of 20 μl of 2% λ-carrageenan (Sigma) in mice. Control animal received only vehicle saline solution (0.9% NaCl). 1 hr prior to carrageenan injection, animals received intra peritoneal injection of either saline or ibuprofen (75 mg/kg in saline solution). Mechanical pain threshold was assessed using von Frey filaments (BioSeb) calibrated from 0.008 to 4.000 g. The filaments were applied five times each, in order of increasing forces, and pressed perpendicularly to the plantar surface of the hindpaw until they bent. The first filament which evoked at least 3/5 response was assigned as the pain threshold in grams.
# arthritic mice [1] = assay: CFA chronic arthritis pain, transdermal gel, mechanical pain; format: in vivo; conditions: gel application; cholesterol 28 mM or ibuprofen 5%
# Procedure: Chronic inflammation (monoarthritis model) was induced under 2% isoflurane anesthesia by two subcutaneous injections of 15 μl around the tibio-tarsal joint of mice with complete Freund adjuvant (CFA), containing 5 μg/μl heat-killed Mycobacterium butyricum (Becton, Dickinson and cie). Mechanical pain threshold was assessed using von Frey filaments (BioSeb) calibrated from 0.008 to 4.000 g. The filaments were applied five times each, in order of increasing forces, and pressed perpendicularly to the plantar surface of the hindpaw until they bent. The first filament which evoked at least 3/5 response was assigned as the pain threshold in grams.
# arthritic mice [2] = assay: CFA induced chronic inflammation (monoarthritis), dynamic weight bearing; format: in vivo
# Procedure: Chronic inflammation (monoarthritis model) was induced under 2% isoflurane anesthesia by two subcutaneous injections of 15 μl around the tibio-tarsal joint of mice with complete Freund adjuvant (CFA), containing 5 μg/μl heat-killed Mycobacterium butyricum (Becton, Dickinson and cie). The animals' weight distribution on the four limbs was assessed using the dynamic weight bearing test (BioSeb). This new incapacitance test consists in a continuous measurement of all pressure points applied by a freely moving animal, allowing a quantitative evaluation of the weight imbalance caused by paw mechanical allodynia. Mice were placed in an 11×11×22 cm cage with a 44×44 sensor cells grid on the floor. The pressure applied on sensor cells by the animal's paws is recorded at a 10 Hz frequency over a 5 min period. Pressure and surface detection thresholds were determined automatically for each animal by the Dynamic weight bearing 1.3.2h software (Bioseb). After the manual attribution of each pressure point to the corresponding paw, the mean weight applied on each paw is calculated. Unilateral pain is finally evaluated trough the ipsi/contralateral hindpaws weight ratio, the weight applied on forepaws, and the percentage of time spent raising ipsilateral hindpaw.
# [3] = test system: wild type and Nav1.9 KO mice; assay: Von Frey test in non-inflamed animals; format: in vivo; conditions: intraplantar injection, non-inflamed wild type and Nav1.9 KO mice
# Procedure: (§1) Methyl βcyclodextrin or α-cyclodextrin (both from sigma) were diluted in saline buffer prior to injection. Methyl βcyclodextrin/cholesterol complex (40 mg of cholesterol/g of complex) also called soluble cholesterol was purchased (from Sigma). Unless otherwise states, all cyclodextrin or cyclodextrin/cholesterol complexes were injected at a 40 mM concentration of cyclodextrin corresponding to 5.6 mM of cholesterol in the complex. Mechanical pain threshold was assessed using von Frey filaments (BioSeb) calibrated from 0.008 to 4.000 g. The filaments were applied five times each, in order of increasing forces, and pressed perpendicularly to the plantar surface of the hindpaw until they bent. The first filament which evoked at least 3/5 response was assigned as the pain threshold in grams.
# [4] = test system: wild type and Nav1.9 KO mice; assay: Von Frey test after intraplantar injection of cyclodextrins (cholesterol depletion); format: in vivo; conditions: for mechanical allodynia / tactile hyperalgesia (von Frey filament test): intraplantar injection of 20 μl of a 40 mM solution
# Procedure: as §1
# [5] = periarticular injection, 20 μl of a 5.6 mM solution, versus saline
compound,measurement,setting,value
CC(C)CCC[C@@H](C)[C@H]1CC[C@H]2[C@@H]3CC=C4C[C@@H](O)CC[C@]4(C)[C@H]3CC[C@]12C [cholesterol],reversal of the inflammatory cocktail-induced shift of Nav1.9 activation curve,Nav1.9,reverses this shift of activation
same,reversal of the inflammatory cocktail-induced shift of Nav1.9 activation curve,Nav1.9; listed as Cholesterol,reverses the shift
same,shift of Nav1.9 activation curve,Nav1.9,does not modify activation properties of Nav1.9
same,"carrageenan induced mechanical allodynia, transdermal delivery","mice; gel with 5.6 mM cholesterol applied for 1.5 hrs, versus control gel",kills carragenin induced pain
same,lambda-carrageenan-induced tactile hyperalgesia (von Frey),"mice; intraplantar injection of soluble cholesterol, 5, 6 mM of cholesterol",inhibits inflammatory evoked pain
same,"chronic arthritis mechanical pain, transdermal delivery",arthritic mice [1],much efficient to treat arthritic inflammatory pain than a 5% ibuprofen gel
same,weight put on tail,arthritic mice [2]; periarticular cholesterol injection versus saline injected mice,reduces the weight put on tail
same,posture / behavioural parameters (dynamic weight bearing),arthritic mice [2]; [5],improved all posture parameters examined; also recorded: improve behavioural parameter of arthritic mice
same,weight borne by inflamed limbs,arthritic mice [2]; [5],bear more weight than limbs injected with saline solution
same,mechanical threshold in physiological non-inflamed conditions,[3],without changing physiological mechanical threshold
same,mechanical threshold in physiological non-inflamed conditions,[3]; listed as Cholesterol,does not modify mechanical sensibility
CC(C)Cc1ccc(C(C)C(=O)O)cc1 (stereo not drawn) [ibuprofen],lambda-carrageenan-induced tactile hyperalgesia (von Frey),"mice; intraperitoneal injection (75 mg/kg, 1 hr prior to carrageenan)",reverse lambdα-carrageenan-induced tactile hyperalgesia
same,effect on methyl-beta-cyclodextrin-induced allodynia (mechanical threshold),"[4]; intraperitoneal 75 mg/kg, wild type and Nav1.9 KO mice",does not modify methyl-beta-cyclodextrin-induced tactile hyperalgia; also recorded: does not reverse allodynic phenotype; also recorded: did not change mechanical threshold
"OC[C@H]1O[C@@H]2O[C@H]3[C@H](O)[C@@H](O)[C@@H](O[C@H]4[C@H](O)[C@@H](O)[C@@H](O[C@H]5[C@H](O)[C@@H](O)[C@@H](O[C@H]6[C@H](O)[C@@H](O)[C@@H](O[C@H]7[C@H](O)[C@@H](O)[C@@H](O[C@H]1[C@H](O)[C@H]2O)O[C@@H]7CO)O[C@@H]6CO)O[C@@H]5CO)O[C@@H]4CO)O[C@@H]3CO [α-CD, α-cyclodextrin]",mechanical allodynia / tactile hyperalgesia (von Frey filament test),[4]; Nav1.9 KO mice,did not induce mechanical allodynia
same,mechanical allodynia / tactile hyperalgesia (von Frey filament test),[4]; wild type mice,did not induce mechanical allodynia
same,mechanical allodynia / tactile hyperalgesia (von Frey filament test),"[4]; wild type mice, listed as Alphα-cyclodextrin",does not induce tactile hyperalgia
cholesterol oxidase,shift of Nav1.9 activation curve,Nav1.9,induces the same shift as inflammatory cocktail; also recorded: shift Nav1.9 activation curves to hyperpolarised potential
methyl-beta-cyclodextrin [MBCD],shift of Nav1.9 activation curve,Nav1.9,shift Nav1.9 activation curves to hyperpolarised potential
same,shift of Nav1.9 activation curve,Nav1.9; listed as MβCD,induces the same shift as inflammatory cocktail
same,mechanical allodynia / tactile hyperalgesia (von Frey filament test),[4]; Nav1.9 KO mice,markedly reduced
same,mechanical allodynia / tactile hyperalgesia (von Frey filament test),[4]; wild type mice,induces a strong mechanical allodynia
